In patent US8519145B2, “Aryl compounds as PPAR ligands and their use” (Seoul National University Industry Foundation, priority 2006, dated 2013):

Experiments:
[1] = Muscle endurance test (treadmill), treatment during pregnancy and/or lactation; assay type: in vivo, mice; details: 10 mg/Kg/day
Description: Muscle Endurance Strengthening and Muscle Function Enhancing Effect
An animal test was performed to confirm muscle endurance strengthening and muscle function enhancing effect of the composition of the present invention. Most muscles are generated in developmental stage. Thus, S14, S46 and S106 (10 mg/Kg/day) were treated to pregnant mice in the period of either pregnancy or lactation or both pregnancy and lactation. Weight gaining and growth rate were not much different between fetuses of the control group and the treatment group. Muscles were observed after removing skin. As a result, muscles of the treatment group were red, unlike the control. ATPase staining and immunostaining were performed. As a result, type I muscle fiber was increased in the treatment group. The role of the changes of the muscle fiber in the enhancement of muscle endurance and muscle function was investigated by using treadmill test. As a result, running time was much extended in the treatment group, compared with the control.

[2] = Obesity inhibitory effect, high-fat feed mice; assay type: in vivo, C57BL/6 mice; details: 10 mg/kg/day oral, 60 days, feeds containing 35% fat
Description: Obesity Inhibitory Effect
An animal test using mice was performed to confirm the in vivo effect of the compound of the present invention. C57BL/6 (SLC Co.) mice at 8 weeks were used. To induce obesity, feeds containing 35% fat were given. While feeding such high-fat feeds for 60 days, vehicle, S14, S46 and S106 (10 mg/kg/day) were orally administered.

[3] = Muscle endurance test (treadmill) in adult mice with forced exercise; assay type: in vivo, C57BL/6 mice; details: 10 mg/kg oral, adult mice at 10 weeks, 30 days treadmill exercise
Description: Particularly, S14, S46 and S106 were orally administered to C57BL/6 mice at 10 weeks at the concentration of 10 mg/kg, during which the mice were forced to exercise. The exercise was performed with treadmill for […] once a day for 30 days, precisely at the speed of 2 meter/min for the first 5 minutes, at 5 meter/min for 5 minutes, at 8 meter/min for 5 minutes and at 20 meter/min for the last 5 minutes. At the finish, muscle endurance and muscle function enhancing effect was tested by using treadmill. As a result, the time (S14 treated group: 1.5 fold, S46 treated group: 1.3 fold, S106 treated group: 1.4 fold increased) and distance (S14 treated group: 1.5 fold, S46 treated group: 1.3 fold, S106 treated group: 1.4 fold increased) of exercise were all increased in the treatment group, compared with the control.

[4] = Morris water maze test in LPS brain disease animal model; assay type: in vivo, C57BL/6 mice
Description: The therapeutic effect of the compound of the present invention on dementia and Parkinson's disease based on the memory improving effect thereof was investigated using brain disease animal model (C57BL/6 mice at 10 weeks). First, LPS was injected into the mouse brain to construct brain disease animal model. The mice were divided into four groups according to the administration and exercise. The exercise was performed with treadmill at the speed of 2 meter/min for the first 5 minutes, at 5 meter/min for 5 minutes, at 8 meter/min for 5 minutes and at 20 meter/min for the last 5 minutes. At the finish, Morris water maze test was performed. As a result, the therapeutic effect of the compound of the invention on dementia and Parkinson's disease via memory enhancement by the compound and exercise was confirmed in the brain disease animal model.

[5] = treated in pregnancy + lactation

Row | SMILES | increasing rate (treatment group/control group), length ([1]; treated in lactation) [times] | increasing rate (treatment group/control group), time ([1]; treated in lactation) [times] | increasing rate (treatment group/control group), length [1, 5] [times] | increasing rate (treatment group/control group), time [1, 5] [times] | increasing rate (treatment group/control group), length ([1]; treated in pregnancy) [times] | increasing rate (treatment group/control group), time ([1]; treated in pregnancy) [times] | weight increase compared with the vehicle group [2] [%] | distance of exercise, increase compared with the control [3] [fold] | time of exercise, increase compared with the control [3] [fold] | Results of water maze test ([4]; Exercise (X)) [s] | Results of water maze test ([4]; Exercise (◯)) [s]
1 | Cc1cc(SC(Cc2ccccc2)c2ccc(-c3ccc(C(F)(F)F)cc3)cc2)ccc1OCC(=O)O (stereo not drawn) [Compound S14] | 2.2 | 2.1 | 3.9 | 3.6 | 2.5 | 2.4 | 31 | 1.5 | 1.5 | 21 | 12
2 | Cc1cc(SC(Cc2ccccc2)c2ccc(-c3ccc(C(F)(F)F)cc3)nc2)ccc1OCC(=O)O (stereo not drawn) [Compound 106] | 1.8 | 1.8 | 3.4 | 3.2 | 2.2 | 2.1 | 37 | 1.4 | 1.4 | 23 | 15
3 | Cc1cc(SC(Cc2ccccc2)c2ccc(-c3cc(F)c(F)c(F)c3)cc2)ccc1OCC(=O)O (stereo not drawn) [Compound 46] | 1.5 | 1.5 | 3.0 | 2.8 | 1.9 | 1.9 | 43 | 1.3 | 1.3 | 27 | 18
